ChEMBL document CHEMBL3044945, “Synthesis of 1,3,5-trisubstituted pyrazoline nucleus containing compounds and screening for antimicrobial activity” (2012)
In brackets after ≈: the same amount, converted by molar mass.

Key:
Assay type in all cases: functional
[1] = tested on: Penicillium chrysogenum; assay: Antifungal activity against Penicillium chrysogenum MTCC 161 after 24 to 48 hr by tube dilution method
[2] = tested on: Staphylococcus aureus; assay: Antibacterial activity against Staphylococcus aureus MTCC 1430 at 250 ug/ml after 48 hr by cup-plate method; conditions: MTCC 1430, 48 h, read-out: DIZ
[3] = tested on: Pseudomonas fluorescens; assay: Antibacterial activity against Pseudomonas fluorescens MTCC 2421 at 1000 ug/ml after 48 hr by cup-plate method; conditions: MTCC 2421, 48 h, read-out: DIZ
[4] = tested on: Pseudomonas aeruginosa; assay: Antibacterial activity against Pseudomonas aeruginosa MTCC 424 at 1250 ug/ml after 48 hr by cup-plate method; conditions: MTCC 424, 48 h, read-out: DIZ
[5] = tested on: Escherichia coli; assay: Antibacterial activity against Escherichia coli MTCC 1573 at 1000 ug/ml after 48 hr by cup-plate method; conditions: MTCC 1573, 48 h, read-out: DIZ
[6] = tested on: Escherichia coli; assay: Antibacterial activity against Escherichia coli MTCC 1573 at 500 ug/ml after 48 hr by cup-plate method; conditions: MTCC 1573, 48 h, read-out: DIZ
[7] = tested on: Pseudomonas fluorescens; assay: Antibacterial activity against Pseudomonas fluorescens MTCC 2421 at 250 ug/ml after 48 hr by cup-plate method; conditions: MTCC 2421, 48 h, read-out: DIZ
[8] = tested on: Escherichia coli; assay: Antibacterial activity against Escherichia coli MTCC 1573 at 100 ug/ml after 48 hr by cup-plate method; conditions: MTCC 1573, 48 h, read-out: DIZ
[9] = tested on: Micrococcus luteus; assay: Antibacterial activity against Micrococcus luteus MTCC 1538 at 750 ug/ml after 48 hr by cup-plate method; conditions: MTCC 1538, 48 h, read-out: DIZ
[10] = tested on: Escherichia coli; assay: Antibacterial activity against Escherichia coli MTCC 1573 after 24 to 48 hr by tube dilution method
[11] = tested on: Micrococcus luteus; assay: Antibacterial activity against Micrococcus luteus MTCC 1538 at 1000 ug/ml after 48 hr by cup-plate method; conditions: MTCC 1538, 48 h, read-out: DIZ
[12] = tested on: Bacillus pumilus; assay: Antibacterial activity against Bacillus pumilus MTCC 1456 after 24 to 48 hr by tube dilution method
[13] = tested on: Aspergillus niger; assay: Antifungal activity against Aspergillus niger MTCC 2546 at 1000 ug/ml after 48 hr by cup-plate method; conditions: MTCC 2546, 48 h, read-out: DIZ
[14] = tested on: Bacillus subtilis; assay: Antibacterial activity against Bacillus subtilis MTCC 441 at 1000 ug/ml after 48 hr by cup-plate method; conditions: MTCC 441, 48 h, read-out: DIZ
[15] = tested on: Aspergillus niger; assay: Antifungal activity against Aspergillus niger MTCC 2546 at 100 ug/ml after 48 hr by cup-plate method; conditions: MTCC 2546, 48 h, read-out: DIZ
[16] = tested on: Pseudomonas fluorescens; assay: Antibacterial activity against Pseudomonas fluorescens MTCC 2421 at 750 ug/ml after 48 hr by cup-plate method; conditions: MTCC 2421, 48 h, read-out: DIZ
[17] = tested on: Penicillium chrysogenum; assay: Antifungal activity against Penicillium chrysogenum MTCC 161 at 250 ug/ml after 48 hr by cup-plate method; conditions: MTCC 161, 48 h, read-out: DIZ
[18] = tested on: Bacillus pumilus; assay: Antibacterial activity against Bacillus pumilus MTCC 1456 at 1000 ug/ml after 48 hr by cup-plate method; conditions: MTCC 1456, 48 h, read-out: DIZ
[19] = tested on: Bacillus subtilis; assay: Antibacterial activity against Bacillus subtilis MTCC 441 at 100 ug/ml after 48 hr by cup-plate method; conditions: MTCC 441, 48 h, read-out: DIZ
[20] = tested on: Staphylococcus aureus; assay: Antibacterial activity against Staphylococcus aureus MTCC 1430 at 750 ug/ml after 48 hr by cup-plate method; conditions: MTCC 1430, 48 h, read-out: DIZ
[21] = tested on: Pseudomonas fluorescens; assay: Antibacterial activity against Pseudomonas fluorescens MTCC 2421 at 1250 ug/ml after 48 hr by cup-plate method; conditions: MTCC 2421, 48 h, read-out: DIZ
[22] = tested on: Aspergillus niger; assay: Antifungal activity against Aspergillus niger MTCC 2546 at 500 ug/ml after 48 hr by cup-plate method; conditions: MTCC 2546, 48 h, read-out: DIZ
[23] = tested on: Penicillium chrysogenum; assay: Antifungal activity against Penicillium chrysogenum MTCC 161 at 500 ug/ml after 48 hr by cup-plate method; conditions: MTCC 161, 48 h, read-out: DIZ
[24] = tested on: Escherichia coli; assay: Antibacterial activity against Escherichia coli MTCC 1573 at 1250 ug/ml after 48 hr by cup-plate method; conditions: MTCC 1573, 48 h, read-out: DIZ
[25] = tested on: Staphylococcus aureus; assay: Antibacterial activity against Staphylococcus aureus MTCC 1430 at 1250 ug/ml after 48 hr by cup-plate method; conditions: MTCC 1430, 48 h, read-out: DIZ
[26] = tested on: Staphylococcus aureus; assay: Antibacterial activity against Staphylococcus aureus MTCC 1430 at 1000 ug/ml after 48 hr by cup-plate method; conditions: MTCC 1430, 48 h, read-out: DIZ
[27] = tested on: Penicillium chrysogenum; assay: Antifungal activity against Penicillium chrysogenum MTCC 161 at 1000 ug/ml after 48 hr by cup-plate method; conditions: MTCC 161, 48 h, read-out: DIZ
[28] = tested on: Micrococcus luteus; assay: Antibacterial activity against Micrococcus luteus MTCC 1538 after 24 to 48 hr by tube dilution method
[29] = tested on: Aspergillus niger; assay: Antifungal activity against Aspergillus niger MTCC 2546 at 250 ug/ml after 48 hr by cup-plate method; conditions: MTCC 2546, 48 h, read-out: DIZ

Work on NC(=O)N1N=C(c2cccc3ccccc23)CC1c1ccc([N+](=O)[O-])cc1 (centres undefined) yielded an MIC [1] of 50 µg/mL (≈ 139 µM), a zone of inhibition at 250 µg/mL [2] of 9 mm and a zone of inhibition at 1000 µg/mL [3] of 12 mm. It also gave a zone of inhibition at 1250 µg/mL [4] of 15 mm, a zone of inhibition at 1000 µg/mL [5] of 13 mm and a zone of inhibition at 500 µg/mL [6] of 11 mm. It also gave a zone of inhibition at 250 µg/mL [7] of 9 mm, a zone of inhibition at 100 µg/mL [8] of 9 mm and a zone of inhibition at 750 µg/mL [9] of 9 mm. For the same compound, the MIC [10] was 50 µg/mL (≈ 139 µM), the zone of inhibition at 1000 µg/mL [11] was 10 mm and the MIC [12] was 50 µg/mL (≈ 139 µM). The zone of inhibition at 1000 µg/mL [13] was 17 mm, the zone of inhibition at 1000 µg/mL [14] was 15 mm and the zone of inhibition at 100 µg/mL [15] was 10 mm. It also gave a zone of inhibition at 750 µg/mL [16] of 11 mm, a zone of inhibition at 250 µg/mL [17] of 9 mm and a zone of inhibition at 1000 µg/mL [18] of 11 mm. The zone of inhibition at 100 µg/mL [19] was 10 mm, the zone of inhibition at 750 µg/mL [20] was 11 mm and the zone of inhibition at 1250 µg/mL [21] was 14 mm. It also gave a zone of inhibition at 500 µg/mL [22] of 13 mm, a zone of inhibition at 500 µg/mL [23] of 10 mm and a zone of inhibition at 1250 µg/mL [24] of 15 mm. It also gave a zone of inhibition at 1250 µg/mL [25] of 14 mm, a zone of inhibition at 1000 µg/mL [26] of 12 mm and a zone of inhibition at 1000 µg/mL [27] of 12 mm. For the same compound, the MIC [28] was 30 µg/mL (≈ 83.2 µM) and the zone of inhibition at 250 µg/mL [29] was 11 mm.
